Assay results published in patent publication US8034817B2, “Treatment of bacterial diseases of the respiratory organs” (Bayer Pharma Aktiengesellschaft, priority 2003, dated 2011).
Counter-ions that a name gives are not always drawn. Like-named read-outs stand apart in the source and are kept apart here.

What was measured:
P. aeruginosa DSM 12055 [1] = assay: Further test with P. aeruginosa DSM 12055, single intratracheal dry powder treatment, microbe count in the lungs; assay type: in vivo, P. aeruginosa (host: rats); settings: single intratracheal treatment 1 hour after infection, 10 mg/kg, DP-3 dry powder insufflator
Protocol: A dose of 10 mg/kg was administered with the aid of a DP-3 dry powder insufflator (PENN-CENTURY, INC.). It is known from control investigations that about 5 to 20% of the administered dose reach the lungs.

[2] = average for 3 animals
P. aeruginosa DSM 12055 [3] = assay: Efficacy in a model of lung infection with P. aeruginosa, treatment 1 and 4 hours after infection, microbe count in the lungs; assay type: in vivo, P. aeruginosa (host: female Wistar rats); settings: lungs after 24 h relative to untreated infection control, average for 5 animals
Protocol: Efficacy in a Model of Lung Infection with P. aeruginosa
[…]. Various dose groups each of 5 rats were employed. The animals were sacrificed 24 hours after the infection, and the lungs were removed and homogenized with a Potter from Braun. The homogenates were plated out to determine the microbe count in the lungs.

[4] = rats; serum and lungs
[5] = 0.5 h, 7.5 mg/kg intratracheally as suspension, 7.5 mg/kg
[6] = 1 h, 7.5 mg/kg intratracheally as suspension, 7.5 mg/kg
[7] = 3 h, 7.5 mg/kg intratracheally as suspension, 7.5 mg/kg
[8] = 5 h, 7.5 mg/kg intratracheally as suspension, 7.5 mg/kg

With `O=C(O)c1cn(C2CC2)c2cc(N3CCNCC3)c(F)cc2c1=O` [ciprofloxacin betaine (micronized), ciprofloxacin betaine] the “Reduction of the microbe count in the lungs compared with an untreated control group” value (P. aeruginosa DSM 12055 [1]) was “more than 6 log units”, the Lung concentration ([2]; 0.25 h, 7.5 mg/kg intratracheally as suspension, 7.5 mg/kg) was 76 µg/mL and the Lung concentration [2, 5] was 76 µg/mL. It also gave a Lung concentration [2, 6] of 76 µg/mL, a Lung concentration [2, 7] of 54 µg/mL and a Lung concentration [2, 8] of 54 µg/mL.
For `Cl.O=C(O)c1cn(C2CC2)c2cc(N3CCNCC3)c(F)cc2c1=O` [ciprofloxacin hydrochloride], the “Reduction in microbe count” value (P. aeruginosa DSM 12055 [3]; 0.8 mg/kg i.t.) was −1.8 log units, the “Reduction in microbe count” value (P. aeruginosa DSM 12055 [3]; 2.5 mg/kg i.t.) was −1.1 log units and the “Reduction in microbe count” value (P. aeruginosa DSM 12055 [3]; 2.5 mg/kg i.v.) was −2.8 log units. For the same compound, the “Reduction in microbe count” value (P. aeruginosa DSM 12055 [3]; 7.5 mg/kg i.t.) was −2.8 log units, the “Reduction in microbe count” value (P. aeruginosa DSM 12055 [3]; 7.5 mg/kg i.v.) was −3.5 log units and the “Reduction in microbe count” value (P. aeruginosa DSM 12055 [3]; 22.5 mg/kg i.v.) was −5.4 log units. The “Reduction in microbe count” value (P. aeruginosa DSM 12055 [3]; 67.5 mg/kg i.v.) was −8.8 log units, the Lung concentration ([2]; 0.25 h, 7.5 mg/kg intravenously as solution) was 0.61 µg/mL and the Lung concentration ([2]; 0.5 h, 7.5 mg/kg intratracheally as solution) was 1.67 µg/mL. For the same compound, the Lung concentration ([2]; 0.5 h, 7.5 mg/kg intravenously as solution) was 0.35 µg/mL, the Lung concentration ([2]; 1 h, 7.5 mg/kg intratracheally as solution) was 0.63 µg/mL and the Lung concentration ([2]; 1 h, 7.5 mg/kg intravenously as solution) was 0.14 µg/mL. The Lung concentration ([2]; 3 h, 7.5 mg/kg intratracheally as solution) was 0.10 µg/mL, the Lung concentration ([2]; 3 h, 7.5 mg/kg intravenously as solution) was 0 µg/mL and the Lung concentration ([2]; 5 h, 7.5 mg/kg intratracheally as solution) was 0 µg/mL. It also gave a Lung concentration ([2]; 5 h, 7.5 mg/kg intravenously as solution) of 0 µg/mL.
With `O=C(O)c1cn(C2CC2)c2cc(N3CCNCC3)c(F)cc2c1=O` [ciprofloxacin betaine (laboratory product)] the “Reduction in microbe count” value (P. aeruginosa DSM 12055 [3]; 0.8 mg/kg i.t.) was −4.0 log units, the “Reduction in microbe count” value (P. aeruginosa DSM 12055 [3]; 2.5 mg/kg i.t.) was −5.8 log units and the “Reduction in microbe count” value (P. aeruginosa DSM 12055 [3]; 7.5 mg/kg i.t.) was −10 log units. It also gave a Lung concentration [2, 5] of 44.3 µg/mL, a Lung concentration [2, 6] of 40.1 µg/mL and a Lung concentration [2, 7] of 12.6 µg/mL. It also gave a Lung concentration [2, 8] of 7.21 µg/mL.
For `COc1c(N2C[C@@H]3CCCN[C@@H]3C2)c(F)cc2c(=O)c(C(=O)O)cn(C3CC3)c12` [moxifloxacin hydrochloride, Moxifloxacin hydrochloride], the “Fall of the concentration after intratracheal administration to the level reached orally” value [4] was “within about an hour”.
